Reference: patent US9617276B2, “Compounds and methods for treating AIDS and HIV infections” (priority 2009, dated 2017)
Where two headings read alike, the source gives them in different places.

Assays:
HIV-1 = experiment: antiviral assay (IC50); assay type: cell-based; conditions: read-out: IC50
Procedure: (§1) The inhibitory potencies of acyclic and cyclic inhibitors were measured by the assay protocol of Toth and Marshall (Toth, M. V.; Marshall, G. R. A simple, continuous fluorometric assay for HIV protease. Int. J. Pep. Protien Res. 1990, 36, 544-55).

HIV-1 protease = biological target: T1, HIV-1 protease (Human immunodeficiency virus type 1 group M subtype B, UniProt P04585); experiment: HIV protease enzyme inhibition, fluorometric assay of Toth and Marshall; assay type: biochemical; conditions: read-out: Ki
T1 construct: A simple, continuous fluorometric assay for HIV protease
Procedure: as §1

HIV-1APV5μM = experiment: microbe, parasite or virus in culture; assay type: cell-based; conditions: Human immunodeficiency virus 1, MT4, read-out: EC50 (μM), HIV-1APV5 μM
Procedure: (§2) The susceptibility of HIV-1LAI and primary HIV-1 isolates to various drugs were determined as described previously (Koh et al. 2003 Antimicrob Agents Chemother 47:3123-9). Briefly, MT-2 cells (2×10^4/ml) were exposed to 100 50% tissue culture infectious doses (TCID50S) of HIV-1LAI, in the presence or absence of various concentrations of drugs in 96-well microculture plates and were incubated at 37° C. for 7 days. After 100 μl of the medium was removed from each well, 3-(4,5-dimetylthiazol-2-yl)-2,5-diphenyltetrazolium bromide (MTT) solution (10 μl, 7.5 mg/ml in phosphate-buffered saline) was added to each well in the plate, followed by incubation at 37° C. for 3 h. […] All assays were performed in duplicate or triplicate. To determine the susceptibility of primary HIV-1 isolates to drugs, phytohemagglutinin-activated peripheral blood mononuclear cells (PHA-PBMCs; 106/ml) were exposed to 50 TCID50S of each. The target cells were exposed to HIV-1104pre or drug-resistant HIV-1 in the presence or absence of various concentrations of drugs and were incubated for 7 days. Upon the conclusion of the culture, the amounts of p24 Gag protein in the supernatants were determined using a fully automated chemiluminescent enzyme immunoassay system (Lumipulse F; Fujirebio Inc., Tokyo, Japan) (Maeda et al. 2001 J Biol Chem 276:35194-200). To determine the drug susceptibility of certain laboratory HIV-1 strains, MT-4 cells were used as target cells. In brief, MT-4 cells (10^5/ml) were exposed to 100 TCID50S of drug-resistant HIV-1 strains in the presence or absence of various concentrations of drugs and on day 7 of culture, the supernatant was harvested and the amounts of p24 Gag protein were determined. […] All assays were performed in duplicate or triplicate.
(§3) Numbers in parentheses represent n-fold changes in EC50s for each isolate compared to the EC50s for wild-type HIV-1NL4-3.

HIV-1SQV5μM = experiment: microbe, parasite or virus in culture; assay type: cell-based; conditions: Human immunodeficiency virus 1, MT4, read-out: EC50 (μM), HIV-1SQV5 μM
Procedure: as §2, §3

HIV-1LPV5μM = experiment: microbe, parasite or virus in culture; assay type: cell-based; conditions: Human immunodeficiency virus 1, MT4, read-out: EC50 (μM), HIV-1LPV5 μM
Procedure: as §2, §3

HIV-1AZV5μM = experiment: microbe, parasite or virus in culture; assay type: cell-based; conditions: Human immunodeficiency virus 1, MT4, read-out: EC50 (μM), HIV-1AZV5 μM
Procedure: as §2, §3

HIV-1NFV5μM = experiment: microbe, parasite or virus in culture; assay type: cell-based; conditions: Human immunodeficiency virus 1, MT4, read-out: EC50 (μM), HIV-1NPV5 μM
Procedure: as §2, §3

HIV-1NL4-3 = experiment: p24 Gag inhibition in MT-4 cells, HIV-1NL4-3; assay type: cell-based; conditions: Human immunodeficiency virus 1, MT4, Table 9, mean ± 1 SD, read-out: EC50 (μM), HIV-1NL4-3
Procedure: All assays were performed in duplicate or triplicate. […] All assays were performed in duplicate or triplicate.

HIV-1216-P50 = experiment: microbe, parasite or virus in culture; assay type: cell-based, HIV-1; conditions: Human immunodeficiency virus 1, MT4, read-out: EC50 (μM), HIV-1216-p50
Procedure: (§4) Briefly, MT-2 cells (2×10^4/ml) were exposed to 100 50% tissue culture infectious doses (TCID50S) of HIV-1LAI, in the presence or absence of various concentrations of drugs in 96-well microculture plates and were incubated at 37° C. for 7 days. After 100 μl of the medium was removed from each well, 3-(4,5-dimetylthiazol-2-yl)-2,5-diphenyltetrazolium bromide (MTT) solution (10 μl, 7.5 mg/ml in phosphate-buffered saline) was added to each well in the plate, followed by incubation at 37° C. for 3 h. […] All assays were performed in duplicate or triplicate. […] To determine the drug susceptibility of certain laboratory HIV-1 strains, MT-4 cells were used as target cells. In brief, MT-4 cells (10^5/ml) were exposed to 100 TCID50S of drug-resistant HIV-1 strains in the presence or absence of various concentrations of drugs and on day 7 of culture, the supernatant was harvested and the amounts of p24 Gag protein were determined. […] All assays were performed in duplicate or triplicate.
as §3

HIV-1246-1μM = experiment: microbe, parasite or virus in culture; assay type: cell-based, HIV-1; conditions: Human immunodeficiency virus 1, MT4, read-out: EC50 (μM), HIV-1246-1 μM
Procedure: as §4, §3

HIV-1396-1μM = experiment: microbe, parasite or virus in culture; assay type: cell-based, HIV-1; conditions: Human immunodeficiency virus 1, MT4, read-out: EC50 (μM), HIV-1396-1 μM
Procedure: as §4, §3

COc1ccc2c(c1)OCCCCCCCN(CC(O)C(Cc1ccccc1)NC(=O)OC1COC3OCCC13)S2(=O)=O (stereo not shown) [Compound 15d]
IC50 (HIV-1; Human immunodeficiency virus 1, Table 2): < 100 nM | Ki (HIV-1 protease; Table 2): < 1 nM

COc1ccc2c(c1)OCCCCC=CCCCCN(CC(O)C(Cc1ccccc1)NC(=O)OC1COC3OCCC13)S2(=O)=O (stereo not shown) [Compound 14a-E]
IC50 (HIV-1; Table 3, E and Z isomers): < 100 nM | Ki (HIV-1 protease; Table 3, E and Z isomers): < 1 nM

COc1ccc2c(c1)OCCCCC=CCC(C)CN(CC(O)C(Cc1ccccc1)NC(=O)OC1COC3OCCC13)S2(=O)=O (stereo not shown) [Compound 21b]
IC50 (HIV-1; Table 4): < 10 nM | IC50 (HIV-1): 6.3 nM | Ki (HIV-1 protease; Table 4): < 10 nM | Ki (HIV-1 protease): 2.8 nM

COc1ccc2c(c1)OCCCC=CCCCCN(CC(O)C(Cc1ccccc1)NC(=O)OC1COC3OCCC13)S2(=O)=O (stereo not shown) [Compound 14b-Z]
IC50 (HIV-1; Human immunodeficiency virus 1, Table 3, E and Z isomers): < 10 nM | Ki (HIV-1 protease; Table 3, E and Z isomers): < 1 nM

Cc1c(O)cccc1C(=O)N[C@@H](CSc1ccccc1)[C@H](O)CN1C[C@H]2CCCC[C@H]2C[C@H]1C(=O)NC(C)(C)C [NFV, Nelfinavir]
EC50 (HIV-1APV5μM): 0.3 ± 0.03 µM | EC50 (HIV-1SQV5μM): 0.51 ± 0.081 µM | EC50 (HIV-1LPV5μM): 0.32 ± 0.12 µM | EC50 (HIV-1AZV5μM): > 1 µM | EC50 (HIV-1NFV5μM): > 1 µM | EC50 (HIV-1NL4-3): 0.04 ± 0.007 µM | EC50 (HIV-1216-P50): 0.13 ± 0.04 µM | EC50 (HIV-1246-1μM): 0.29 ± 0.006 µM | EC50 (HIV-1396-1μM): 0.22 ± 0.02 µM
